Literature values, collected in patent US10543277B2, “Formulation of curcumin with enhanced bioavailability of curcumin and method of preparation and treatment thereof” (ARJUNA NATURAL PRIVATE LIMITED, priority 2005, dated 2020).

Columns and labels:
[1] = test system: OPLs
[2] = test system: oral premalignancy; conditions: for responded to maintenance therapy or continued to have stable lesions / subjects who responded to maintenance therapy or continued to have stable lesions: maintenance phase; for subjects who responded to maintenance therapy or continued to have stable lesions: 53 evaluable
[3] = test system: LOX (lipoxygenase) pathway; conditions: 10 μM
[4] = test system: COX pathway; conditions: 10 μM
[5] = among the 24 13-cRA subjects, 1-2 mg/kg/day for three months

SMILES: CC1=C(/C=C/C(C)=C/C=C/C(C)=C\C(=O)O)C(C)(C)CCC1 [13-cRA, 13-cis-retinoic acid]
- subjects with complete responses [1, 5]: 2
- subjects with partial responses [1, 5]: 14
- relapse after end of therapy ([1]; in vivo): 2-3 months
- subjects with intolerable conjunctivitis and hypertriglyceridemia ([1]; receiving 2 mg/kg): 2
- rate of response at the conclusion of induction ([2]; high-dose induction therapy): 55%
- rate of stable disease at the conclusion of induction ([2]; high-dose induction therapy): 35%
- responded to maintenance therapy or continued to have stable lesions [2]: 92%
- subjects who responded to maintenance therapy or continued to have stable lesions [2]: 22

SMILES: COc1cc(/C=C/C(=O)CC(=O)/C=C/c2ccc(O)c(OC)c2)ccc1O [Curcumin, 1,7-bis(4-hydroxy-3-methoxyphenyl)-1,6-heptadiene-3,5-dione]
- inhibition of conversion of arachidonic acid to 5-hydroxyeicosatetraenoic acid [3]: 60%
- inhibition of conversion of arachidonic acid to 8-hydroxyeicosatetraenoic acid [3]: 51%
- inhibition of metabolism of arachidonic acid to PGD2 [4]: 73%
- inhibition of metabolism of arachidonic acid to PGE2 [4]: 70%
- inhibition of metabolism of arachidonic acid to PGF2α [4]: 64%

SMILES: CC1=C(/C=C/C(C)=C/C=C/C(C)=C/C=C/C=C(C)/C=C/C=C(C)/C=C/C2=C(C)CCCC2(C)C)C(C)(C)CCC1 [β-carotene]
- responded to maintenance therapy or continued to have stable lesions [2]: 45%
- subjects who responded to maintenance therapy or continued to have stable lesions [2]: 13
